From patent US12084420B2, “Indoline compounds for inhibiting KIF18A” (Volastra Therapeutics, Inc., priority 2021, dated 2024) come the findings set out here.

The target in the first assay is hKIF18A (1-374) (Homo sapiens (Human), UniProt Q8NI77). As to the kind of experiment: Inhibition of KIF18A microtubule-dependent ATPase activity (ADP-Glo).
Chain of hKIF18A (1-374) (Q8NI77 whole entry, looked up): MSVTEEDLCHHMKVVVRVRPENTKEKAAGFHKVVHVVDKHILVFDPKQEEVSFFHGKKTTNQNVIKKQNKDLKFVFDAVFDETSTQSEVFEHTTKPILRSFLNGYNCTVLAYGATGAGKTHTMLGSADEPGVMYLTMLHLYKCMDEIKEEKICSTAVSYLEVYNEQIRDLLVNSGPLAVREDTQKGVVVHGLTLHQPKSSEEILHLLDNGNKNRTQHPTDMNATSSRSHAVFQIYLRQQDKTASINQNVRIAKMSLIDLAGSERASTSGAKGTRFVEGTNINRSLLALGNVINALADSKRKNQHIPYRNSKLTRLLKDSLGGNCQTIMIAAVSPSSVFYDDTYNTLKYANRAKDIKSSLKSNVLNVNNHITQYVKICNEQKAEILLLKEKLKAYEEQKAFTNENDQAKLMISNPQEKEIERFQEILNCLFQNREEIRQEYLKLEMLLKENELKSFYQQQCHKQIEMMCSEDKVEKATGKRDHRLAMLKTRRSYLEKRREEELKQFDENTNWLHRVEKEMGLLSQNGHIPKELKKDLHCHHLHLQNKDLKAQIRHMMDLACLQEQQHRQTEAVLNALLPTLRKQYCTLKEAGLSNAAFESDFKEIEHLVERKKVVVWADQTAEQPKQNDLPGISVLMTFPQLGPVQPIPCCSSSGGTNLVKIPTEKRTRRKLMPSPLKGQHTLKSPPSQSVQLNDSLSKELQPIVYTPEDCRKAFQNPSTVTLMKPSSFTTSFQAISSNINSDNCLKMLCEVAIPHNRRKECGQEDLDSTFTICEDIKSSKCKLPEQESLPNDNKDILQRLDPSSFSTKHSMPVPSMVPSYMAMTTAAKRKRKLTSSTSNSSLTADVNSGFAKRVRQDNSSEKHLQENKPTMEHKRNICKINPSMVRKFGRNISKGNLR
Chain of hKIF18A (1-374) (Q2XVP4 whole entry partner, looked up): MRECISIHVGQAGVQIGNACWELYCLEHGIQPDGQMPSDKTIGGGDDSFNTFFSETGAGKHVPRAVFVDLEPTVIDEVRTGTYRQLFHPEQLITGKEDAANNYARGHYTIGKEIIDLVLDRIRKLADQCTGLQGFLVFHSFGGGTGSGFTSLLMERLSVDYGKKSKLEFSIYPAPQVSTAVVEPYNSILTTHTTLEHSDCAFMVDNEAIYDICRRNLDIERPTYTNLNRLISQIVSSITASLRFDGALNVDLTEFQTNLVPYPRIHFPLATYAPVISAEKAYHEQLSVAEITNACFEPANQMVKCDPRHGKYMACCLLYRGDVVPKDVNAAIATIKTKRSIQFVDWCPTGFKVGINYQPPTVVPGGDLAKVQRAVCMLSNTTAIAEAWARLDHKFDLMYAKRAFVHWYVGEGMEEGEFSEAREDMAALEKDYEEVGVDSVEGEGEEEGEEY
Chain of hKIF18A (1-374) (P02554 whole entry partner, looked up): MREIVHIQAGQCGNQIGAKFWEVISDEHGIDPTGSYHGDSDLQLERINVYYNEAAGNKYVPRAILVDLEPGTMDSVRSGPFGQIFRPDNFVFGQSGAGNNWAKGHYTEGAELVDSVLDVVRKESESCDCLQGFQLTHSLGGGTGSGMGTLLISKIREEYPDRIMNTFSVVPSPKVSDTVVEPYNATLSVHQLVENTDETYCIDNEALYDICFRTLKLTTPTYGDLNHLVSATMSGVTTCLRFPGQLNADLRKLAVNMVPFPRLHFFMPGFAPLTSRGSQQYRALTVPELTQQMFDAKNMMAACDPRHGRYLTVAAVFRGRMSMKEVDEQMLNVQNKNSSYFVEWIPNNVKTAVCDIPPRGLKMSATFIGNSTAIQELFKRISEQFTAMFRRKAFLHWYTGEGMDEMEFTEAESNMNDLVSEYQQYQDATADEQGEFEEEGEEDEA
Settings: not given
For orientation: ADP-Glo first removes unused ATP, then detects ADP through luciferase.
One may read the IC50 as the midpoint of a concentration-inhibition curve. Read a low IC50 as greater potency. With `COC1CC(NS(=O)(=O)c2cccc(C(=O)N3CC4(CCC5(CC5)CC4)c4cc(NS(C)(=O)=O)ccc43)c2)C1` (stereo not shown) [Compound 222, N-(3-methoxycyclobutyl)-3-(5″- (methylsulfonamido)dispiro[cyclopropane-1,1′-cyclohexane-4′,3″-indoline]-1″-carbonyl)benzenesulfonamide], half-maximal inhibition (IC50) required 100 nM. This lies in the sub-micromolar range.

The molecule `CC1CCC2(CC1)CN(C(=O)c1cccc(S(=O)(=O)N3CCC(F)(F)CC3)c1)c1ccc(Br)cc12` (stereo not shown) [Compound 15, (5′-bromo-4-methylspiro[cyclohexane-1,3′-indolin]-1′-yl)(3-((4,4-difluoropiperidin-1-yl)sulfonyl)phenyl)methanone] returned a half-maximal inhibitory concentration (IC50) of 740 nM.

Still in this assay, the particulars now being: KIF18A microtubule-dependent ATPase activity, biochemical assay.
The molecule `CS(=O)(=O)Nc1ccc2c(c1)C1(CCCCC1)CN2C(=O)c1cccc(S(=O)(=O)NC2CC2)c1` [Compound 46, N-cyclopropyl-3-(5′-(methylsulfonamido)spiro[cyclohexane-1,3′-indoline]-1′-carbonyl)benzenesulfonamide] displayed an IC50 of 120 nM.

Take `CC1(NS(=O)(=O)c2cccc(C(=O)N3CC4(CCC5(CC5)CC4)c4cc(NS(C)(=O)=O)ccc43)c2)COC1` [Compound 206, N-(3-methyloxetan-3-yl)-3-(5″- (methylsulfonamido)dispiro[cyclopropane-1,1′-cyclohexane-4′,3″-indoline]-1″-carbonyl)benzenesulfonamide]: the IC50 was 27 nM. This IC50 is about 4.4-fold lower than that of the molecule before.

`CCS(=O)(=O)Nc1ccc2c(c1)C1(CCC3(CC3)CC1)CN2C(=O)c1ccc(C(O)C2CCCC2)o1` (single isomer, unassigned) [Compound 367a] showed a half-inhibitory concentration (IC50) of 3.9 nM.

Take `CS(=O)(=O)Nc1ccc2c(c1)C1(CCCCC1)CN2C(=O)c1cccc(S(=O)(=O)N2CCC(F)C2)c1` (stereo not shown) [Compound 83, N-(1′-(3-((3-fluoropyrrolidin-1-yl)sulfonyl)benzoyl)spiro[cyclohexane-1,3′-indoline]-5′-yl)methanesulfonamide]: the concentration for half-maximal inhibition (IC50) came to 130 nM.

With `O=C(c1cccc(S(=O)(=O)N2CCC(F)(F)CC2)c1)N1CC2(CCCC2)c2c(F)cccc21` [Compound 1, (3-((4,4-difluoropiperidin-1-yl)sulfonyl)phenyl)(4′-fluorospiro[cyclopentane-1,3′-indolin]-1′-yl)methanone], the 50% inhibitory concentration (IC50) amounted to 1600 nM. Compared with the last molecule, the IC50 is about 12-fold higher.

For `CCC(CC)NS(=O)(=O)c1cccc(C(=O)N2CC3(CCC4(CC4)CC3)c3cc(NS(C)(=O)=O)ccc32)c1` [Compound 198, 3-(5″- (methylsulfonamido)dispiro[cyclopropane-1,1′-cyclohexane-4′,3″-indoline]-1″-carbonyl)-N-(pentan-3-yl)benzenesulfonamide], the IC50 turned out to be 26 nM.

Turning to `CC(C)(C)NS(=O)(=O)c1cc(C(=O)N2CC3(CCCCC3)c3cc(NS(=O)(=O)CCO)ccc32)cs1` [Compound 289, N-(tert-butyl)-4-(5′-((2-hydroxyethyl)sulfonamido)spiro [cyclohexane-1,3′-indoline]-1′-carbonyl)thiophene-2-sulfonamide], the IC50 was 17 nM.

In turn, `CS(=O)(=O)Nc1ccc2c(c1)C1(CCC3(CC3)CC1)CN2C(=O)c1cccc(C(C#N)C2CCCC2)c1` (stereo not shown) [Compound 339, N-(1″-(3-(cyano(cyclopentyl)methyl)benzoyl)dispiro[cyclopropane-1,1′-cyclohexane-4′,3″-indolin]-5″- yl)methanesulfonamide] gave a concentration for half-maximal inhibition (IC50) of 24 nM.

As for `CC1(NS(=O)(=O)c2cccc(C(=O)N3CC4(CCC5(CC5)CC4)c4cc(NS(C)(=O)=O)ccc43)c2)CCOC1` (stereo not shown) [Compound 178, 3-(5″- (methylsulfonamido)dispiro[cyclopropane-1,1′-cyclohexane-4′,3″-indoline]-1″-carbonyl)-N-(3-methyltetrahydrofuran-3-yl)benzenesulfonamide], half-maximal inhibition (IC50) required 17 nM.

`CS(=O)(=O)Nc1ccc2c(c1)C1(CCC3(CC3)CC1)CN2C(=O)c1csc(S(=O)(=O)NC2CCC2)c1` [Compound 291, N-cyclobutyl-4-(5″- (methylsulfonamido)dispiro[cyclopropane-1,1′-cyclohexane-4′,3″-indoline]-1″-carbonyl)thiophene-2-sulfonamide] had a concentration for half-maximal inhibition (IC50) of 5.8 nM.

`CC(C)(C)NS(=O)(=O)c1cccc(C(=O)N2C[C@]3(CC[C@@H](C(F)(F)F)CC3)c3cc(NS(C)(=O)=O)ccc32)c1` [Compound 361b] registered a concentration for half-maximal inhibition (IC50) of 100 nM.

As to `CC1CCC2(CC1)CN(C(=O)c1cccc(S(=O)(=O)N3CCC(F)(F)CC3)c1)c1ccc(Br)cc12` (stereo not shown) [Compound 15, (5′-bromo-4-methylspiro[cyclohexane-1,3′-indolin]-1′-yl)(3-((4,4-difluoropiperidin-1-yl)sulfonyl)phenyl)methanone], 780 nM corresponded to half-maximal inhibition (IC50).

Consider `CC1CCC2(C1)CN(C(=O)c1cccc(S(=O)(=O)NC(C)(C)C)c1)c1ccc(NS(C)(=O)=O)cc12` (stereo not shown) [Compound 252, N-(tert-butyl)-3-(3-methyl-5′-(methylsulfonamido)spiro[cyclopentane-1,3′-indoline]-1′-carbonyl)benzenesulfonamide], for which the IC50 came out at 34 nM.

`CC(C)N(C)S(=O)(=O)c1cccc(C(=O)N2CC3(CCCCC3)c3cc(NS(C)(=O)=O)ccc32)c1` [Compound 55, N-isopropyl-N-methyl-3-(5′-(methylsulfonamido)spiro[cyclohexane-1,3′-indoline]-1′-carbonyl)benzenesulfonamide] gave an IC50 of 140 nM.

The molecule `COCCS(=O)(=O)Nc1ccc2c(c1)C1(CCC3(CC3)CC1)CN2C(=O)c1cccc(S(=O)(=O)NC(C)(C)C)c1` [Compound 300, N-(tert-butyl)-3-(5″-((2-methoxyethyl)sulfonamido)dispiro [cyclopropane-1,1′-cyclohexane-4′,3″- indoline]-1″- carbonyl)benzenesulfonamide] came in with an IC50 of 31 nM.

`CC(C)(C)NS(=O)(=O)c1cccc(C(=O)N2CC3(CCC4(CC4)CC3)c3cc(C(O)C(F)(F)F)ccc32)c1` (stereo not shown) [Compound 338, N-(tert-butyl)-3-(5″-(2,2,2-trifluoro-1-hydroxyethyl)dispiro[cyclopropane-1,1′-cyclohexane-4′,3″-indoline]-1″-carbonyl)benzenesulfonamide] yielded a half-inhibitory concentration (IC50) of 49 nM.

With `CS(=O)(=O)Nc1ccc2c(c1)C1(CCC3(CC3)CC1)CN2C(=O)c1ccnc(C(O)C2CCCC2)c1` (stereo not shown) [Compound 316, N-(1″-(2-(cyclopentyl(hydroxy)methyl)isonicotinoyl)dispiro[cyclopropane-1,1′-cyclohexane-4′,3″-indolin]-5″- yl)methanesulfonamide], half-maximal inhibition (IC50) was put at 18 nM.

As to `CC(C)C(C)NS(=O)(=O)c1cccc(C(=O)N2CC3(CCC4(CC4)CC3)c3cc(NS(C)(=O)=O)ccc32)c1` (stereo not shown) [Compound 210, N-(3-methylbutan-2-yl)-3-(5″- (methylsulfonamido)dispiro[cyclopropane-1,1′-cyclohexane-4′,3″-indoline]-1″-carbonyl)benzenesulfonamide], half-maximal inhibition (IC50) was put at 16 nM.

With `CS(=O)(=O)Nc1ccc2c(c1)C1(CCC3(CC3)CC1)CN2C(=O)c1cccc(C(O)C2CCC2)c1` (stereo not shown) [Compound 313, N-(1″-(3-(cyclobutyl(hydroxy)methyl)benzoyl)dispiro[cyclopropane-1,1′-cyclohexane-4′,3″-indolin]-5″- yl)methanesulfonamide], the IC50 was 20 nM.

On to `CS(=O)(=O)Nc1ccc2c(c1)C1(CCCCC1)CN2C(=O)c1cccc(S(=O)(=O)C2CCCC2)c1` [Compound 50, N-(1′-(3-(cyclopentylsulfonyl)benzoyl)spiro [cyclohexane-1,3′-indolin]-5′-yl)methanesulfonamide], for which the half-inhibitory concentration (IC50) came to 72 nM.
